One data set addresses T1, NADPH oxidase (NOX) (Homo sapiens, UniProt P04839).
T1 construct: HL-60 cells were differentiated into NOX-expressing granulocytes; endogenous in cells; host or cells: HL-60 cells differentiated into granulocytes with 1% DMSO
T1 sequence (P04839 1-570): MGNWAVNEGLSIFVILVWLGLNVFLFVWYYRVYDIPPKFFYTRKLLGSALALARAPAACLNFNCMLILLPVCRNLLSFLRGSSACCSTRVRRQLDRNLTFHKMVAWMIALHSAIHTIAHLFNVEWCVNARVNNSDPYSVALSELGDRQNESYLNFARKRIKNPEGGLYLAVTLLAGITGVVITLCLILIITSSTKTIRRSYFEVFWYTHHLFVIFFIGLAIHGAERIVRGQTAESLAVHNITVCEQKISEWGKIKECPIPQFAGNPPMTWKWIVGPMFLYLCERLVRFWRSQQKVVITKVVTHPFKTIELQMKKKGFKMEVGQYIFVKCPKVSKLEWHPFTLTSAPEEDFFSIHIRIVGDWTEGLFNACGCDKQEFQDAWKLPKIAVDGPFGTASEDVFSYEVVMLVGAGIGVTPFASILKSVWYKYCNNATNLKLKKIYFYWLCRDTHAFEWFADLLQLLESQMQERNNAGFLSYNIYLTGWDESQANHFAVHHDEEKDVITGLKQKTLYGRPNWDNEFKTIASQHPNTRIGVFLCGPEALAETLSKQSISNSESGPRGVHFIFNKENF
T1 sequence (P13498 1-195 partner): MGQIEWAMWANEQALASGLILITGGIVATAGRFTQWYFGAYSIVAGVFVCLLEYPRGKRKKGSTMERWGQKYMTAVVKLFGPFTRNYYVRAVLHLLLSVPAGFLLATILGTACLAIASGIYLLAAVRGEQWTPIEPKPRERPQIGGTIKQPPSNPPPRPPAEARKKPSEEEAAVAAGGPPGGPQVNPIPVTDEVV
Description: Measurement of NOX inhibitory activity in differentiated HL-60 cells (PMA-activated superoxide production, WST-1 formazan absorbance at 450 nm). The following applies: for Inhibitory activity ratio: 3-acetyl triterpenic acid versus the triterpenic acid without acetyl group, formula (i). The class given is cell-based. An excerpt:
It is known that undifferentiated human myeloid leukemia HL-60 cells have an ability to proliferate, but differentiate into mature granulocytes by adding DMSO (dimethyl sulfoxide), retinoic acid, or the like and lose their proliferative ability. Mature HL-60 cells express NOX that serves as an indicator of differentiation. NOX can be used as an indicator for evaluating NOX inhibitory activity.
HL-60 cells were differentiated into NOX-expressing granulocytes by the following method.
Then, the suspension was dispensed into cell culture dishes (100 mm) so as to be 15 mL each, and the cells were cultured in a CO2 incubator (37° C.) for 3 days.
The differentiated HL-60 cells were used to measure NOX inhibitory activity as will be described below.
WST-1 (2-(4-iodophenyl)-3-(4-nitrophenyl)-5-(2,4-disulfophenyl)-2H-tetrazolium, monosodium salt) was dissolved in a D-MEM medium so as to be 0.8 mg/mL, and thus a WST-1 solution was prepared. WST-1 reacts with superoxide and produces yellow formazan. Yellow formazan absorbs a wavelength of 450 nm, and, therefore, the amount of yellow formazan can be measured by measuring absorbance at a wavelength of 450 nm. Also, the amount of yellow formazan produced is proportional to the amount of superoxide during the reaction, and, therefore, the amount of superoxide can be measured by measuring the amount of yellow formazan produced.
PMA (phorbol 12-myristate 13-acetate) was dissolved in a D-MEM medium so as to be 4 μM, and thus a PMA solution was prepared.
PMA is known to function to activate NOX and causes superoxide production.
The differentiated HL-60 cells were collected by centrifugation, and suspended in a D-MEM medium containing neither FBS nor phenol red so as to be 5×10^6 cells/mL.
The cell suspension was added into a 96-well microplate so as to be 25 μL per well.
Next, 25 μL of the WST-1 solution prepared as described above was added to the wells.
After adding the solutions, the cell suspensions were stirred.
Thereafter, 25 μL of the prepared PMA solution was added (a final PMA concentration in the medium being 1 μM) to activate NOX and carry out a reaction at 37° C. for 60 minutes.
Then, by measuring absorbance at a wavelength of 450 nm, the amount of yellow formazan produced and thus the amount of superoxide produced by NOX were measured.
Inhibitory activity ratio=(IC50 of triterpenic acid having acetyl group)/(IC50 of triterpenic acid without acetyl group) (i)
Based on the obtained measurement results, the IC50 (μg/mL) of fraction 1 and fraction 2 was determined.
Moreover, the inhibitory activity ratio of triterpenic acid having an acetyl group in fraction 2 to triterpenic acid without an acetyl group in fraction 1 was calculated using formula (i).

A short description of data set [1]: Body weight and food intake of SAMP10 mice during 12-week feeding. The class given is in vivo, mouse. The following applies: AIN-93M containing 0.006% ursolic acid or 0.002% acetylursolic acid for 12 weeks. On the procedure: (§1) As for a young (young control) group, SAMP10 mice at 8 weeks old were purchased, acclimated for 7 days, and received AIN-93M (manufactured by CLEA Japan Inc.) as a base food for 12 weeks, and then the brain function was evaluated at 4 months old (N=15). As for an elderly group, mice at 14 weeks old were purchased, acclimated until 8 months old, randomly divided into 2 groups, received AIN-93M or AIN-93M containing 0.02% Aronia extract for 12 weeks, and then the brain function was evaluated at 11 months old (an elderly control group (N=26), an elderly Aronia received group (N=18)). The food was changed once a week, and the food intake and the body weight were measured once a week.
The brain function ameliorating effects of ursolic acid and acetylursolic acid contained in Aronia were compared in terms of the recovery of light room latency. SAMP10 mice at 14 weeks old were purchased, acclimated until 8 months old, then randomly divided into two groups, and received AIN-93M containing 0.006% ursolic acid or AIN-93M containing 0.002% acetylursolic acid for 12 weeks. When the mice reached 11 months old, a brain function was evaluated according to the method of Reference Example 1 (0.006% ursolic acid received group (N=8), and 0.002% acetylursolic acid received group (N=10)).

The subject of data set [2] is Senescent Accelerated Model Prone 10 (SAMP10) mouse. Description: Brain function evaluation by passive avoidance test (step-through test) in senescence accelerated model. The following applies: SAMP10 mice, AIN-93M containing 0.006% ursolic acid or 0.002% acetylursolic acid for 12 weeks, evaluated at 11 months old. Type of data set: in vivo. How it is done: The effect of inhibiting a decline in brain function of the Aronia extract was evaluated using the extract powder obtained in Example 2. The Senescent Accelerated Model Prone 10 (SAMP10) mouse, which is one of the senescence accelerated models, is known to show age-related decline in brain function at an early stage, and can be used to evaluate effects on an age-related decline in brain function. Accordingly, this animal was used to investigate the brain function ameliorating effect of the Aronia extract. A series of animal experiments were carried out based on a plan that complies with the animal welfare management law and other relevant laws and that is approved by the head of an organization after being reviewed by an institutional animal experiment committee.
as §1
A brain function was evaluated using a passive avoidance test (a step-through test). […]
Mice were placed in a light room (9 cm width, 11.5 cm depth, 15 cm height) of a step-through passive avoidance response tester (manufactured by Muromachi Kikai Co., Ltd.), then a door to a dark room (14 cm width, 17.5 cm depth, 15 cm height) was opened 30 seconds later, and the time until the mice entered the dark room (the light room latency) was measured. […]
A retention trial was performed the day after the acquisition trial. The same operation as the acquisition trial was performed on the mice, and the latency in light room was measured. […] The latency was measured up to 300 seconds, and evaluations were made such that the longer the latency of the retention trial is, the higher the memory function is.
The brain function ameliorating effects of ursolic acid and acetylursolic acid contained in Aronia were compared in terms of the recovery of light room latency. […] When the mice reached 11 months old, a brain function was evaluated according to the method of Reference Example 1 (0.006% ursolic acid received group (N=8), and 0.002% acetylursolic acid received group (N=10)).

Setting [3] is: standard products, differentiated HL-60 cells, 1 μM PMA, 37° C., 60 minutes, read-out: IC50.

In general, IC50 refers to the concentration that gives 50% inhibition.

Where two headings read alike, the source gives them in different places.

Regarding `CC(=O)O[C@H]1CC[C@]2(C)[C@H]3CC=C4[C@@H]5CC(C)(C)CC[C@]5(C(=O)O)CC[C@@]4(C)[C@]3(C)CC[C@H]2C1(C)C` [3-Acetyloleanolic acid], on NADPH oxidase (NOX), the IC50 was determined as 10 µM and the Inhibitory activity ratio was found to be 4.4 times.
As for `C[C@H]1[C@H](C)CC[C@]2(C(=O)O)CC[C@]3(C)C(=CC[C@@H]4[C@@]5(C)CC[C@H](O)C(C)(C)[C@@H]5CC[C@]43C)[C@H]12` [Ursolic acid, reference compound], the “body weight and food intake” value in data set [1] was “no difference”. Also, in data set [2], the “latency in light room, acquisition trial” value is “no difference between groups” and the “latency in light room, retention trial” value is recorded as “act to inhibit an age-related decline in brain function”. In addition, the half-maximal inhibitory concentration (IC50) on NADPH oxidase (NOX) (setting [3]) is 44 µM.
Turning to `CC(=O)O[C@H]1CC[C@]2(C)[C@H]3CC=C4[C@@H]5[C@@H](C)[C@H](C)CC[C@]5(C(=O)O)CC[C@@]4(C)[C@]3(C)CC[C@H]2C1(C)C` [3-Acetylursolic acid], in data set [2], the “latency in light room, acquisition trial” value is “no difference between groups” and the “latency in light room, retention trial” value is on record as “stronger effect on ameliorating brain function than ursolic acid”. The Inhibitory activity ratio on NADPH oxidase (NOX) is 7.3 times. In addition, the IC50 at NADPH oxidase (NOX) (setting [3]) was 6 µM.

The values above are taken from US20210015830A1, “COMPOSITION FOR INHIBITING REACTIVE OXYGEN SPECIES PRODUCTION” (SUNTORY HOLDINGS LIMITED, priority 2017, published 2021).
